Measured values published in patent publication US20260297060A1, “COMPOUNDS FOR THE DEGRADATION OF MUTANT BRAF” (C4 THERAPEUTICS, INC., priority 2023, published 2026).
Like-named read-outs stand apart in the source and are kept apart here.

What was measured:
[1] = molecular target: T1, BRAF V600E (Homo sapiens, UniProt P15056+Q96SW2, V600E); assay: BRAF V600E HiBiT Degradation Assay; format: cell-based
T1 construct: knock-in of the HiBiT tag to the endogenous BRAF V600E locus; host or cells: A375.10 (A375 clonal line, CRISPR HiBiT knock-in at the endogenous BRAF V600E locus)
T1 sequence (P15056 whole entry V600E): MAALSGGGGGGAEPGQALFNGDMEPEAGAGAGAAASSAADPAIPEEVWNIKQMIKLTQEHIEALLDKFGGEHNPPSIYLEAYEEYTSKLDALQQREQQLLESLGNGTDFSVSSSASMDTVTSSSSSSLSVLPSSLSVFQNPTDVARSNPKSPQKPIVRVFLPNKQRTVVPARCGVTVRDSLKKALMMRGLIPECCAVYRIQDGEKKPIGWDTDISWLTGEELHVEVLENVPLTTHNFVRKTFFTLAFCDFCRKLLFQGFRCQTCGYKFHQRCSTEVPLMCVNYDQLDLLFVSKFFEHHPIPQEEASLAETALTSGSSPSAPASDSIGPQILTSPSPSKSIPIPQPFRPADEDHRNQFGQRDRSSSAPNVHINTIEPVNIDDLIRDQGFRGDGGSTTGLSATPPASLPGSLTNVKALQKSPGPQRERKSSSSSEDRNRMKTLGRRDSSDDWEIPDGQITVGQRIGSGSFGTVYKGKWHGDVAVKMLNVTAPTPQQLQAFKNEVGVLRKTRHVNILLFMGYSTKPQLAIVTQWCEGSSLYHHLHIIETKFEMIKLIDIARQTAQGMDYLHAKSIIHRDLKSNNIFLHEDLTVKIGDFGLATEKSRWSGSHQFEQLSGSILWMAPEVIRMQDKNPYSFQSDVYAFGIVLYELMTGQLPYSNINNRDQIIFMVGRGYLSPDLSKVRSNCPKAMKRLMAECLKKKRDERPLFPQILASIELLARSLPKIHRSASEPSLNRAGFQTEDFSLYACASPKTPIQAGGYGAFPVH
T1 sequence (Q96SW2 whole entry): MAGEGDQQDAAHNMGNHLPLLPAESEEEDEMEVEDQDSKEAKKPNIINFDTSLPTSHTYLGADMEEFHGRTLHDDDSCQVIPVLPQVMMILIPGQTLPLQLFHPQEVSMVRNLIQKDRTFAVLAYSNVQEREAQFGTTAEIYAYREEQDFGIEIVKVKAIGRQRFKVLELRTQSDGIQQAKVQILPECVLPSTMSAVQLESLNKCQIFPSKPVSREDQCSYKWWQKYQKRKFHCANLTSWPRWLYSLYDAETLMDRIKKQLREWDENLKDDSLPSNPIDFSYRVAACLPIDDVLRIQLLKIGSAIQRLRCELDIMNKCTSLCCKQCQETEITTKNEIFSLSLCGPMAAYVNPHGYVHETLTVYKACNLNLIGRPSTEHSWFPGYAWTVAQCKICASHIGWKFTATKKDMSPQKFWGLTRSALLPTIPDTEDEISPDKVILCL
T1 sequence (Q16531 whole entry partner): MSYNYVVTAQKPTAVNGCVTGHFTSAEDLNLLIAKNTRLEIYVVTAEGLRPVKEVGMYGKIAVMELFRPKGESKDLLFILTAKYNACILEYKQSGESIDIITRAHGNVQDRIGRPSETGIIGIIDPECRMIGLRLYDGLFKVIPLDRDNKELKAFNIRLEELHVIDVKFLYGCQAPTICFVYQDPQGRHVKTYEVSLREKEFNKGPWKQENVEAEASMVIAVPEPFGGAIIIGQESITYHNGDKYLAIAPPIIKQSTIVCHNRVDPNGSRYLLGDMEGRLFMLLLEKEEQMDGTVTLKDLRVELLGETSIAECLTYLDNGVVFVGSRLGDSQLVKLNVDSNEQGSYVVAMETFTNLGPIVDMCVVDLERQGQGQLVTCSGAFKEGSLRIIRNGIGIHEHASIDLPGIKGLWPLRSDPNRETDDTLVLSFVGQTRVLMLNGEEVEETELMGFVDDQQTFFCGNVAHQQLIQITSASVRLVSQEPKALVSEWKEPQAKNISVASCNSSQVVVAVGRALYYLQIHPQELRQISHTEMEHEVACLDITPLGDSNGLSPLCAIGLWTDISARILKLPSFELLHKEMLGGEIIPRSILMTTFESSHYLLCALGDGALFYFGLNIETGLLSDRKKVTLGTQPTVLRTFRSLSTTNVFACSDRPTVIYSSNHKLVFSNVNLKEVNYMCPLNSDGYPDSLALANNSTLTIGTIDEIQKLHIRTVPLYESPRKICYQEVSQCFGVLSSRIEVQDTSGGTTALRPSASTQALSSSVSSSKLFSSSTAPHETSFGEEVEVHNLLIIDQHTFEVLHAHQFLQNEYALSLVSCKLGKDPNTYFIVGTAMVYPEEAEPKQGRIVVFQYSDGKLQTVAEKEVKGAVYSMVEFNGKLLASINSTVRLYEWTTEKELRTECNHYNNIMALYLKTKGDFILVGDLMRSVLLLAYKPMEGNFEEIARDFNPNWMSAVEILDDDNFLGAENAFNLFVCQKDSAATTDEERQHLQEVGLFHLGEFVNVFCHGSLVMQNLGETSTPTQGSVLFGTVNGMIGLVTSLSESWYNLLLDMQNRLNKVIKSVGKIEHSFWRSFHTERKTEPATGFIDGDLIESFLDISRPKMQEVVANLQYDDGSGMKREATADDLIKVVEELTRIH
Summary of the method: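 Endogenous HiBiT knock-in on BRAF V600E in A375 cells (clone A375.10); 11-point half-log series, top 10 μM, 2, 6 or 24 h at 37° C. Lytic HiBiT luminescence, background-subtracted, normalized to DMSO; 4-parameter fit gives DC50, Emax (residual protein) and IP (inflection point).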

[2] = system: A375-NRAS^Q61K cells; assay: CTGlo Cell Viability Assay, A375-NRAS^Q61K (A375.11) cells, 96 hours; format: cell-based, human; settings: A375.11 (A375-NRAS^Q61K) cells; for Emax / CTGlo A375.11 96 hours Emax: lowest % viability achieved
Summary of the method: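 Viability as CellTiter-Glo ATP luminescence after 96 h compound exposure at 37 °C; A375.11 (BRAF V600E/NRAS Q61K) cells at 250/well, top final concentration 10 μM in half-log steps. Signal was background-corrected and set relative to DMSO controls. A 4-parameter logistic fit gave GI50 (50% crossing) and Emax.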

[3] = A375.10 cells, BRAF V600E, 2 hours, inflection point, read-out: HiBiT-Degradation A375.10 BRAF 2 hours IP
[4] = A375.10 cells, BRAF V600E, 2 hours, read-out: HiBiT-Degradation A375.10 BRAF 2 hours DC50
[5] = A375.10 cells, BRAF V600E, 2 hours, residual protein remaining, read-out: HiBiT-Degradation A375.10 BRAF 2 hours Emax
[6] = A375.10 cells, BRAF V600E, 2 hours, residual protein remaining

DC50 [1, 3] [nM]	DC50 [1, 4] [nM]	Emax [1, 5] [%]	GI50 [2] [nM]	HiBiT-Degradation A375.10 BRAF 2 hours Emax [1, 6]	GI50 ([2]; Homo sapiens, 96 h) [nM]	HiBiT-Degradation A375.10 BRAF 2 hours Emax [1]	Emax ([1]; read-out: HiBiT-Degradation A375.10 BRAF 2 hours Emax, A375.10 cells, BRAF V600E, 2 hours, residual protein remaining) [%]	Compound	Emax ([2]; Homo sapiens, 96 h) [%]	CTGlo A375.11 96 hours Emax [2]
< 1000	> 10000	50 to 90	> 10000	–	–	–	–	CCN(C)S(=O)(=O)Nc1ccc(F)c(Oc2ccc3ncc(CCC4CCN(C5CCC(c6ccc(NC7CCC(=O)NC7=O)cc6F)CC5)CC4)nc3c2)c1C#N (single isomer, unassigned) [Compound 131, 7-[2-cyano-3-[[ethyl(methyl)sulfamoyl]amino]-6-fluoro-phenoxy]-2-[2-[1-[4-[4-[(2,6-dioxo-3-piperidyl)amino]-2-fluoro-phenyl]cyclohexyl]-4-piperidyl]ethyl]quinoxaline]	50 to 90	–
< 1000	< 1000	–	< 1000	*** (<=50%)	–	–	–	CCN(C)S(=O)(=O)Nc1ccc(F)c(Oc2ccc3ncc(CCC4CCN(C5CCC(c6ccc(NC7CCC(=O)NC7=O)cc6F)CC5)CC4)nc3c2)c1C#N (single isomer, unassigned) [Compound 132, 7-[2-cyano-3-[[ethyl(methyl)sulfamoyl]amino]-6-fluoro-phenoxy]-2-[2-[1-[4-[4-[(2,6-dioxo-3-piperidyl)amino]-2-fluoro-phenyl]cyclohexyl]-4-piperidyl]ethyl]quinoxaline]	–	** (<90% and >50%)
< 1000	< 1000	< 50	–	–	< 1000	–	–	N#Cc1c(NS(=O)(=O)C2CCCC2)ccc(F)c1Oc1ccc2ncn([C@H]3COC4(CCN(C5CCC(c6ccc(NC7CCC(=O)NC7=O)cc6F)CC5)CC4)C3)c(=O)c2c1 (single isomer, unassigned) [Compound 136]	< 50	–
< 1000	< 1000	50 to 90	–	–	1000 to 10000	–	–	CCN(C)S(=O)(=O)Nc1ccc(F)c(Oc2ccc3ncn(CCC4CCN(C5CCC(c6cc7c(cc6F)c(N6CCC(=O)NC6=O)nn7C)CC5)CC4)c(=O)c3c2)c1C#N (single isomer, unassigned) [Compound 137, 6-[2-cyano-3-[[ethyl(methyl)sulfamoyl]amino]-6-fluoro-phenoxy]-3-[2-[1-[4-[3-(2,4-dioxohexahydropyrimidin-1-yl)-5-fluoro-1-methyl-indazol-6-yl]cyclohexyl]-4-piperidyl]ethyl]-4-oxo-quinazoline]	50 to 90	–
< 1000	1000 to 10000	–	1000 to 10000	** (<90% and >50%)	–	–	–	CCN(C)S(=O)(=O)Nc1ccc(F)c(Oc2ccc3ncn(CCC4CCN(C5CCC(c6cc7c(cc6F)c(N6CCC(=O)NC6=O)nn7C)CC5)CC4)c(=O)c3c2)c1C#N (single isomer, unassigned) [Compound 138, 6-[2-cyano-3-[[ethyl(methyl)sulfamoyl]amino]-6-fluoro-phenoxy]-3-[2-[1-[4-[3-(2,4-dioxohexahydropyrimidin-1-yl)-5-fluoro-1-methyl-indazol-6-yl]cyclohexyl]-4-piperidyl]ethyl]-4-oxo-quinazoline]	–	** (<90% and >50%)
< 1000	< 1000	< 50	–	–	< 1000	–	–	CO[C@H]1CCN(S(=O)(=O)Nc2ccc(F)c(Oc3ccc4ncn([C@H]5COC6(CCN(C7CCC(c8ccc(NC9CCC(=O)NC9=O)cc8F)CC7)CC6)C5)c(=O)c4c3)c2C#N)C1 (single isomer, unassigned) [Compound 140]	< 50	–
< 1000	< 1000	< 50	–	–	< 1000	–	–	N#Cc1c(NS(=O)(=O)N2CC[C@@H](F)C2)ccc(F)c1Oc1ccc2ncn(C3COC4(CCN(C5CCC(c6ccc(NC7CCC(=O)NC7=O)cc6F)CC5)CC4)C3)c(=O)c2c1 (single isomer, unassigned) [Compound 143]	< 50	–
< 1000	> 10000	–	> 10000	–	–	** (<90% and >50%)	–	CN(CCO)S(=O)(=O)Nc1ccc(F)c(Oc2ccc3ncn(C4CC5(CCN(C6CCC(c7cc8c(cc7F)c(N7CCC(=O)NC7=O)nn8C)CC6F)CC5)C4)c(=O)c3c2)c1C#N (single isomer, unassigned) [Compound 146, 6-[2-cyano-6-fluoro-3-[[2-hydroxyethyl(methyl)sulfamoyl]amino]phenoxy]-3-[7-[4-[3-(2,4-dioxohexahydropyrimidin-1-yl)-5-fluoro-1-methyl-indazol-6-yl]-2-fluoro-cyclohexyl]-7-azaspiro[3.5]nonan-2-yl]-4-oxo-quinazoline]	–	** (<90% and >50%)
< 1000	> 10000	50 to 90	–	–	> 10000	–	–	CCN(C)S(=O)(=O)Nc1ccc(F)c(Oc2ccc3ncc(CC4CCN(C5CCC(c6ccc(NC7CCC(=O)NC7=O)cc6F)CC5)CC4)nc3c2)c1C#N (single isomer, unassigned) [Compound 147, 7-[2-cyano-3-[[ethyl(methyl)sulfamoyl]amino]-6-fluoro-phenoxy]-2-[[1-[4-[4-[(2,6-dioxo-3-piperidyl)amino]-2-fluoro-phenyl]cyclohexyl]-4-piperidyl]methyl]quinoxaline]	50 to 90	–
< 1000	< 1000	< 50	–	–	> 10000	–	–	CCN(C)S(=O)(=O)Nc1ccc(F)c(Oc2ccc3ncc(CC4CCN(C5CCC(c6cc7c(cc6F)c(N6CCC(=O)NC6=O)nn7C)CC5)CC4)nc3c2)c1C#N (single isomer, unassigned) [Compound 149, 7-[2-cyano-3-[[ethyl(methyl)sulfamoyl]amino]-6-fluoro-phenoxy]-2-[[1-[4-[3-(2,4-dioxohexahydropyrimidin-1-yl)-5-fluoro-1-methyl-indazol-6-yl]cyclohexyl]-4-piperidyl]methyl]quinoxaline]	50 to 90	–
< 1000	1000 to 10000	50 to 90	–	–	> 10000	–	–	CCN(C)S(=O)(=O)Nc1ccc(F)c(Oc2ccc3ncn(CCC4CCN(C5CCC(c6ccc(NC7CCC(=O)NC7=O)cc6F)CC5)CC4)c(=O)c3c2)c1C#N (single isomer, unassigned) [Compound 153, 6-[2-cyano-3-[[ethyl(methyl)sulfamoyl]amino]-6-fluoro-phenoxy]-3-[2-[1-[4-[4-[(2,6-dioxo-3-piperidyl)amino]-2-fluoro-phenyl]cyclohexyl]-4-piperidyl]ethyl]-4-oxo-quinazoline]	50 to 90	–
< 1000	< 1000	50 to 90	–	–	> 10000	–	–	CCN(C)S(=O)(=O)Nc1ccc(F)c(Oc2ccc3ncn([C@H]4COC5(CCC(N6C7COCC6CC(c6cc8c(cc6F)c(N6CCC(=O)NC6=O)nn8C)C7)CC5)C4)c(=O)c3c2)c1C#N (single isomer, unassigned) [Compound 155]	50 to 90	–
< 1000	< 1000	–	–	–	1000 to 10000	–	< 50	CCN(C)S(=O)(=O)Nc1ccc(F)c(Oc2ccc3ncc([C@@H]4COC5(CCN(C6CCC(c7cc8c(cc7F)c(N7CCC(=O)NC7=O)nn8C)CC6F)CC5)C4)nc3c2)c1C#N (single isomer, unassigned) [Compound 163]	50 to 90	–
< 1000	> 10000	50 to 90	–	–	1000 to 10000	–	–	CCN(C)S(=O)(=O)Nc1ccc(F)c(Oc2ccc3ncn(C4CC5(CCN(C6CCC(c7ccc(NC8CCC(=O)NC8=O)cc7F)CC6)CC5)C4)c(=O)c3c2)c1F (single isomer, unassigned) [Compound 166, 3-[7-[4-[4-[(2,6-dioxo-3-piperidyl)amino]-2-fluoro-phenyl]cyclohexyl]-7-azaspiro[3.5]nonan-2-yl]-6-[3-[[ethyl(methyl)sulfamoyl]amino]-2,6-difluoro-phenoxy]-4-oxo-quinazoline]	–	* (>=90%)
< 1000	> 10000	–	1000 to 10000	** (<90% and >50%)	–	–	–	CCN(C)S(=O)(=O)Nc1ccc(F)c(Oc2ccc3ncn(C4CC5(CCN(C6CCC(c7ccc(NC8CCC(=O)NC8=O)cc7F)CC6)CC5)C4)c(=O)c3c2)c1F (single isomer, unassigned) [Compound 167, 3-[7-[4-[4-[(2,6-dioxo-3-piperidyl)amino]-2-fluoro-phenyl]cyclohexyl]-7-azaspiro[3.5]nonan-2-yl]-6-[3-[[ethyl(methyl)sulfamoyl]amino]-2,6-difluoro-phenoxy]-4-oxo-quinazoline]	–	** (<90% and >50%)
< 1000	> 10000	50 to 90	–	–	1000 to 10000	–	–	CN(CCO)S(=O)(=O)Nc1ccc(F)c(Oc2ccc3ncc([C@H]4COC5(CCN(C6CCC(c7cc8c(cc7F)c(N7CCC(=O)NC7=O)nn8C)CC6F)CC5)C4)nc3c2)c1C#N (single isomer, unassigned) [Compound 170]	50 to 90	–
